In patent US11819572B2, “Treatment of pain by administration of sustained-release liposomal anesthetic compositions” (Pacira Pharmaceuticals, Inc., priority 2020, dated 2023):

Legend:
[1] = in vivo; conditions: beagle, dog, iv, 1.5 mg/kg
Protocol: Without wishing to be held to any particular mechanism or theory, it is believed that the observed toxicity differences above are attributable to the differences in plasma bupivacaine levels of the groups of dogs receiving free bupivacaine and EXPAREL®, respectively. […] Similarly, the Cmax for dogs receiving the same dose as in (i)—i.e., (1.5 mg/kg) of EXPAREL®—was clearly lower than that of dogs receiving free bupivacaine. […] The difference in exposure between the two groups may also be seen by comparing the respective values of Cmax/dose. […] In contrast with the above differences in Cmax in the two groups, the total AUC/dose was similar in dogs receiving EXPAREL® as compared to dogs receiving free bupivacaine. In particular, the values for female dogs were 751 (ng-hr/mL)/(mg/kg) for EXPAREL® (1.5 mg/kg dose), 674 (ng-hr/mL)/(mg/kg) for EXPAREL® (4.5 mg/kg dose), and 738 (ng-hr/mL)/(mg/kg)) for free bupivacaine. The values for male dogs were 1510 (ng-hr/mL)/(mg/kg) for EXPAREL® (1.5 mg/kg dose), 826 (ng-hr/mL)/(mg/kg) for EXPAREL® (4.5 mg/kg dose), and 879 (ng-hr/mL)/(mg/kg) for free bupivacaine.
(§1) The study was conducted in a manner analogous to the intravenous administration study described in a) above.

[2] = Bupivacaine plasma pharmacokinetics after intra-arterial (IA) administration in Beagle dogs; type: in vivo; conditions: Beagle dog plasma bupivacaine, 0.1 mg/kg, Day 1, mean
Protocol: b) Intra-Arterial Administration to Beagle Dogs of (a) Bupivacaine and (b) EXPAREL®:
as §1

[3] = system: rats; test: Intravenous administration to rats of bupivacaine and EXPAREL: tolerability; type: in vivo
Protocol: The following is a summary of the results from two pre-clinical studies that compared the tolerability and PK profiles for non-liposomal bupivacaine vs EXPAREL®
Improved toleration was attributed to the reduced peak plasma levels of bupivacaine observed in animals following administration of EXPAREL® vs non-liposomal bupivacaine. 1) Intravenous (IV) Administration to Rats of (a) Bupivacaine and (b) EXPAREL®:
Free bupivacaine was administered to three rats in an amount equivalent to 1.0, 1.75 and 2.5 mg/kg of bupivacaine. Two rats died, corresponding to a 67% mortality rate. In a separate experiment, EXPAREL® was administered to rats in an amount equivalent to 2.5, 5.0 and 7.5 mg/kg of bupivacaine. […] The NOELs (no observable effect levels) determined for EXPAREL® and for free bupivacaine in this study were 7.5 mg/kg and 1.0 mg/kg, respectively.

[4] = system: Beagle dogs; test: Intravenous administration to Beagle dogs of bupivacaine and EXPAREL: adverse events and cardiology; type: in vivo, Beagle dog
Protocol: a) Intravenous (IV) Administration to Beagle Dogs of (a) Bupivacaine and (b) EXPAREL®:
Free bupivacaine was administered to dogs in an amount equivalent to 0.75 mg/kg and to 1.5 mg/kg of bupivacaine. Three dogs (one that was administered 0.75 mg/kg, and two that were administered 1.5 mg/kg) experienced side-effects such as convulsions, tremors, increased respiration and/or emesis (Table 1). In a separate experiment, EXPAREL® was administered to dogs in the same amount as above. […] A 3-fold higher dose of EXPAREL® (that is, a dose equivalent to 4.5 mg/kg of bupivacaine) was then administered to the dogs.

[5] = three rats, 1.0, 1.75 and 2.5 mg/kg of bupivacaine
[6] = Beagle dogs, dose 0.75, 1.5 mg/kg (Group 2)

SMILES: CCCCN1CCCCC1C(=O)Nc1c(C)cccc1C (stereo not drawn) [free bupivacaine, bupivacaine]
- AUC(0-t) ([1]; female): 1110 ng·h/mL
- AUC(0 − t)/D ([1]; female): 738 ng·h/mL/mg/kg
- Cmax ([1]; female): 2050 ng/mL
- Cmax/D ([1]; female): 1370 ng·kg/mL/mg
- Cmax/dose ([1]; female): 1.37
- half-life ([1]; female): 28.4 min
- total AUC/dose ([1]; female): 738 (ng-hr/mL)/(mg/kg)
- AUC(0-t) ([1]; male): 1320 ng·h/mL
- AUC(0 − t)/D ([1]; male): 879 ng·h/mL/mg/kg
- Cmax ([1]; male): 2750 ng/mL
- Cmax/D ([1]; male): 1830 ng·kg/mL/mg
- Cmax/dose ([1]; male): 1.83
- half-life ([1]; male): 31.2 min
- total AUC/dose ([1]; male): 879 (ng-hr/mL)/(mg/kg)
- AUC(0-t) ([2]; Female): 62.6 ng·h/mL
- AUC(0 − t)/D ([2]; Female): 626 ng·h/mL/mg/kg
- Cmax ([2]; Female): 187 ng/mL
- Cmax/D ([2]; Female): 1870 ng·kg/mL/mg
- half-life ([2]; Female): 16 min
- AUC(0-t) ([2]; Male): 71.1 ng·h/mL
- AUC(0 − t)/D ([2]; Male): 711 ng·h/mL/mg/kg
- Cmax ([2]; Male): 205 ng/mL
- Cmax/D ([2]; Male): 2050 ng·kg/mL/mg
- half-life ([2]; Male): 15.8 min
- NOEL (no observable effect level) ([3]; rats): 1.0 mg/kg
- Mortality rate [3, 5]: 67%
- Rats that died [3, 5]: Two rats died
- Dogs that experienced side-effects such as convulsions, tremors, increased respiration and/or emesis ([4]; 0.75 mg/kg): one
- Dogs that experienced side-effects such as convulsions, tremors, increased respiration and/or emesis ([4]; 0.75 mg/kg and 1.5 mg/kg of bupivacaine (all)): Three dogs
- Dogs that experienced side-effects such as convulsions, tremors, increased respiration and/or emesis ([4]; 1.5 mg/kg): two
- Cardiology: Change in heart rate (BMP, avg) [4, 6]: 56 ± 31 BMP
- No. of animals exhibiting clinical symptoms: Increased respiration [4, 6]: 2
- No. of animals exhibiting clinical symptoms: Sustained convulsions [4, 6]: 1
- No. of animals exhibiting clinical symptoms: Tremors [4, 6]: 1
- No. of animals exhibiting clinical symptoms: Unsustained convulsions [4, 6]: 0
- No. of animals exhibiting clinical symptoms: Vomiting [4, 6]: 2
